{
  "source": "patent US7265260B2",
  "about": "“Transgenic non-human mammals expressing constitutively activated tyrosine kinase receptors” (Bristol-Myers Squibb Company, priority 2002, dated 2007)",
  "test_system": "IGF1R Sal tumor cell line",
  "experiment": "Cytotoxicity assay: inhibition of cell proliferation by [3H]-thymidine incorporation",
  "format": "cell-based",
  "conditions": "IGF-1R-Sal, IGF1R Sal (CD8-IGF1R) cell line from transgenic mouse xenograft tumor, 72 h exposure, read-out: Cytotoxicity Assay IC50 (nM) against IGF1R Sal tumor cell line",
  "protocol": "The proliferative activity of two IGF1R inhibitors in cells was evaluated in vitro against a cell line derived from a xenograft tumor generated in a transgenic mouse, IGF1R Sal (CD8-IGF1R), which was engineered to overexpress the catalytic domain of the human IGF1R. The two IGF1R inhibitors evaluated were a benzimidazole compound as described in WO02/079192 and U.S. application Ser. No. 10/263,448, hereby incorporated by reference, and paclitaxel. Inhibition of cellular proliferation was also determined in a variety of human tumor xenograft cell lines including, Colo205 (colon), Geo (colon), RD1 (rhabdomyosarcoma), H3396 (breast), and MDA PCa2b (prostate). Proliferation was evaluated by incorporation of [^3H]-thymidine into DNA after a 72 hour exposure to reagents. Cells were plated at 1,500 cells/well in 96-well microtiter plates and 24 hours later cells were exposed to a range of drug concentrations. After 72 hours incubation at 37° C., cells were pulsed with 4 μCi/ml [6-^3H] thymidine (Amersham Pharmacia Biotech, UK) for 3 hours, trypsinized, harvested onto UniFilter-96, GF/B plates (PerkinElmer, Boston, Mass.), and scintillation was measured on a TopCount.NXT (Packard, Conn.). Results are expressed as an IC50, which is the drug concentration required to inhibit cell proliferation by 50% to that of untreated control cells.",
  "data": [
    {"smiles": "CC(=O)O[C@H]1C(=O)[C@@]2(C)[C@H]([C@H](OC(=O)c3ccccc3)[C@]3(O)C[C@H](OC(=O)[C@H](O)[C@@H](NC(=O)c4ccccc4)c4ccccc4)C(C)=C1C3(C)C)[C@]1(OC(C)=O)CO[C@@H]1C[C@@H]2O", "note": "[paclitaxel]", "values": [
      {"measurement": "IC50", "value": 2.9, "unit": "nM"}
    ]}
  ]
}
